Patent US7902252B2, “Inhibitors of D-amino acid oxidase” (Sepracor, Inc., priority 2007, dated 2011)

Experiments:
[1] = biological target: Human DAAO (Homo sapiens, UniProt P14920); test: D-Amino Acid Oxidase enzyme assay (D-serine, horseradish peroxidase/Amplex Red coupled fluorescence); format: biochemical; details: D-serine 5 mM, pH 7.4
Procedure, shortened: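 D-serine substrate at 5 mM (Km), 50 mM sodium phosphate pH 7.4; H2O2 output coupled via 4 U/mL horseradish peroxidase and 50 μM Amplex Red to resorufin fluorescence. Reaction started with enzyme; H2O2 control checked coupling interference; IC50 from inhibition curves.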

[2] = tested on: D-serine levels in the cerebellum; test: In vivo elevation of D-serine levels in the cerebellum; design: species or system Mice (C57BL/6); details: mice, intraperitoneal;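 note: Cutoffs are cerebellum D-serine in nmol/g wet tissue weight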
Description: […] Animals are sacrificed at either 2 or 6 h post compound administration with an N=3 per time point. At sacrifice, trunk blood is collected into tubes containing potassium EDTA, which are then centrifuged to permit isolation of plasma. The cerebellum is dissected from each animal. Plasma and cerebellum samples are stored at −80° C. until samples are analyzed (LC/MS/MS).

Sequence of Human DAAO (P14920 whole entry): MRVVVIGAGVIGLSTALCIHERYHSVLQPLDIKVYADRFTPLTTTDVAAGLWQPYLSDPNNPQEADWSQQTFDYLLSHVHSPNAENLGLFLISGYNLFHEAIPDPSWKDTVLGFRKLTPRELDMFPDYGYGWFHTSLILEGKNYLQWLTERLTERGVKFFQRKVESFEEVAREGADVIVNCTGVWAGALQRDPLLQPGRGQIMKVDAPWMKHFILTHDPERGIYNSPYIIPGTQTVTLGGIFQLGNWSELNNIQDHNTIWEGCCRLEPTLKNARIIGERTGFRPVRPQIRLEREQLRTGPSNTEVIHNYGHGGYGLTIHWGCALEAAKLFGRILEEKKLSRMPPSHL

Row | IC50 [1] [µM] | Compound | Cerebellum D-serine at 2 hours ([2]; dose 60 mg/kg) | Cerebellum D-serine at 6 hours ([2]; dose 60 mg/kg) | Cerebellum D-serine at 2 hours ([2]; dose 30 mg/kg) | Cerebellum D-serine at 6 hours ([2]; dose 30 mg/kg) | Cerebellum D-serine at 2 hours ([2]; dose 10 mg/kg) | Cerebellum D-serine at 6 hours ([2]; dose 10 mg/kg)
1 | ≤ 0.1 | O=C(O)c1cc2c([nH]1)C[C@@H]1C[C@H]21 (racemic) [Compound 138, ±(1aS,5aS)-1a,4,5,5a-tetrahydro-1H-4-aza-cyclopropa[α]pentalene-3-carboxylic acid] | (++) (>5 = (++)) | (++) (>5 = (++)) |  |  |  | 
2 | ≤ 0.1 | O=C(O)c1cc2c([nH]1)CCC2Cc1cccc(-c2ccc[nH]2)c1 (single isomer, unassigned) [Compound 93, 4-(3-(1H-pyrrol-2-yl)benzyl)-1,4,5,6-tetrahydrocyclopenta[b]pyrrole-2-carboxylic acid] |  |  | (+) (2.5-4.9 = (+)) | (+) (2.5-4.9 = (+)) |  | 
3 | ≤ 0.1 | O=C(O)c1cc2c([nH]1)C(Cc1cc(F)cc(Cl)c1)CC2 (centres unmarked) [Compound 124, 6-(3-chloro-5-fluorobenzyl)-1,4,5,6-tetrahydrocyclopenta[b]pyrrole-2-carboxylic acid] | (−) (<2.5 = (−)) | (−) (<2.5 = (−)) |  |  |  | 
4 | > 100 | CCOC(=O)c1[nH]c2c(c1O)CCC2 [Compound 137, ethyl 3-hydroxy-1,4,5,6-tetrahydrocyclopenta[b]pyrrole-2-carboxylate] |  |  | (+) (2.5-4.9 = (+)) | (+) (2.5-4.9 = (+)) |  | 
5 | ≤ 0.1 | O=C(O)c1cc2c([nH]1)CCC2c1cccc(F)c1 (single isomer, unassigned) [Compound 96, 4-(3-fluorophenyl)-1,4,5,6-tetrahydrocyclopenta[b]pyrrole-2-carboxylic acid] |  |  | (+) (2.5-4.9 = (+)) | (+) (2.5-4.9 = (+)) |  | 
6 | ≤ 0.1 | O=C(O)c1cc2c([nH]1)CCC2c1cc(F)cc(F)c1 (single isomer, unassigned) [Compound 100, 4-(3,5-difluorophenyl)-1,4,5,6-tetrahydrocyclopenta[b]pyrrole-2-carboxylic acid] |  |  | (+) (2.5-4.9 = (+)) | (+) (2.5-4.9 = (+)) |  | 
7 | ≤ 0.1 | O=C(O)c1cc2c([nH]1)CCC2Cc1cccc(-c2ccco2)c1 (single isomer, unassigned) [Compound 89, 4-(3-(furan-2-yl)benzyl)-1,4,5,6-tetrahydrocyclopenta[b]pyrrole-2-carboxylic acid] |  |  | (−) (<2.5 = (−)) |  |  | 
8 | ≤ 0.1 | O=C(O)c1cc2c([nH]1)CCC2c1ccc(F)c(F)c1 (centres unmarked) [Compound 97, 4-(3,4-difluorophenyl)-1,4,5,6-tetrahydrocyclopenta[b]pyrrole-2-carboxylic acid] | (+) (2.5-4.9 = (+)) | (+) (2.5-4.9 = (+)) |  |  |  | 
9 | ≤ 0.1 | O=C(O)c1cc2c([nH]1)[C@@H]1C[C@@H]1C2 [Compound 146, (1aR,5aR)-1a,2,5,5a-tetrahydro-1H-2-aza-cyclopropa[α]pentalene-3-carboxylic acid] | (++) (>5 = (++)) | (++) (>5 = (++)) |  |  |  | 
10 | ≤ 0.1 | N#Cc1cccc(C2CCc3[nH]c(C(=O)O)cc32)c1 (centres unmarked) [Compound 105, 4-(3-cyanophenyl)-1,4,5,6-tetrahydrocyclopenta[b]pyrrole-2-carboxylic acid] | (−) (<2.5 = (−)) |  |  |  |  | 
11 | ≤ 0.1 | O=C(O)c1cc2c([nH]1)C(Cc1cccc(Cl)c1)CC2 (single isomer, unassigned) [Compound 123, 6-(3-chlorobenzyl)-1,4,5,6-tetrahydrocyclopenta[b]pyrrole-2-carboxylic acid] |  |  | (+) (2.5-4.9 = (+)) | (+) (2.5-4.9 = (+)) |  | 
12 | ≤ 0.1 | COc1cccc(CC2CCc3cc(C(=O)O)[nH]c32)c1 (single isomer, unassigned) [Compound 131, 6-(3-methoxybenzyl)-1,4,5,6-tetrahydrocyclopenta[b]pyrrole-2-carboxylic acid] |  |  | (+) (2.5-4.9 = (+)) | (+) (2.5-4.9 = (+)) |  | 
13 | ≤ 0.1 | O=C(O)c1cc2c([nH]1)CC1CC21 (single isomer, unassigned) [Compound 140, 1a,4,5,5a-tetrahydro-1H-4-aza-cyclopropa[α]pentalene-3-carboxylic acid] |  |  | (++) (>5 = (++)) | (++) (>5 = (++)) |  | 
14 | ≤ 0.1 | O=C(O)c1cc2c([nH]1)CCC2Cc1ccc2ccccc2c1 (single isomer, unassigned) [Compound 80, 4-(naphthalen-2-ylmethyl)-1,4,5,6-tetrahydrocyclopenta[b]pyrrole-2-carboxylic acid] |  |  | (+) (2.5-4.9 = (+)) | (+) (2.5-4.9 = (+)) |  | 
15 | ≤ 100 | O=C(O)c1cc2c([nH]1)C(Cc1cccc(Br)c1)CC2 (single isomer, unassigned) [Compound 126, 6-(3-bromobenzyl)-1,4,5,6-tetrahydrocyclopenta[b]pyrrole-2-carboxylic acid] |  |  |  |  |  | 

Further lines, the compound ahead of its results:

Row | Compound | IC50 [1] [µM] | Cerebellum D-serine at 2 hours ([2]; dose 60 mg/kg) | Cerebellum D-serine at 6 hours ([2]; dose 60 mg/kg) | Cerebellum D-serine at 2 hours ([2]; dose 30 mg/kg) | Cerebellum D-serine at 6 hours ([2]; dose 30 mg/kg) | Cerebellum D-serine at 2 hours ([2]; dose 10 mg/kg) | Cerebellum D-serine at 6 hours ([2]; dose 10 mg/kg)
16 | Cc1cccc(CC2CCc3[nH]c(C(=O)O)cc32)c1 (centres unmarked) [Compound 70, 4-(3-methylbenzyl)-1,4,5,6-tetrahydrocyclopenta[b]pyrrole-2-carboxylic acid] | ≤ 0.1 | (+) (2.5-4.9 = (+)) | (+) (2.5-4.9 = (+)) |  |  |  | 
17 | O=C(O)c1cc2c([nH]1)CCC2Cc1ccc(F)c(Cl)c1 (single isomer, unassigned) [Compound 50, 4-(3-chloro-4-fluorobenzyl)-1,4,5,6-tetrahydrocyclopenta[b]pyrrole-2-carboxylic acid] |  |  |  | (++) (>5 = (++)) | (+) (2.5-4.9 = (+)) |  | 
18 | O=C(O)c1cc2c([nH]1)CCC2Cc1ccc(Cl)c(Cl)c1 (single isomer, unassigned) [Compound 59, 4-(3,4-dichlorobenzyl)-1,4,5,6-tetrahydrocyclopenta[b]pyrrole-2-carboxylic acid] | ≤ 0.1 |  |  |  |  | (+) (2.5-4.9 = (+)) | (+) (2.5-4.9 = (+))
19 | O=C(O)c1cc2c([nH]1)CCC2Cc1ccc(Br)cc1 (single isomer, unassigned) [Compound 62, 4-(4-bromobenzyl)-1,4,5,6-tetrahydrocyclopenta[b]pyrrole-2-carboxylic acid] | ≤ 0.1 |  |  | (+) (2.5-4.9 = (+)) | (++) (>5 = (++)) |  | 
20 | O=C(O)c1cc2c([nH]1)CCC2Cc1ccc(F)c(F)c1 (single isomer, unassigned) [Compound 44, 4-(3,4-difluorobenzyl)-1,4,5,6-tetrahydrocyclopenta[b]pyrrole-2-carboxylic acid] | ≤ 0.1 |  |  | (+) (2.5-4.9 = (+)) | (+) (2.5-4.9 = (+)) |  | 
21 | O=C(O)c1cc2c([nH]1)CCC2 [Compound 1, 1,4,5,6-tetrahydro-cyclopenta[b]pyrrole-2-carboxylic acid] | ≤ 0.1 |  |  | (++) (>5 = (++)) | (++) (>5 = (++)) |  | 
22 | O=C(O)c1cc2c([nH]1)CCC2Cc1cccc(F)c1 (centres unmarked) [Compound 54, 4-(3-fluorobenzyl)-1,4,5,6-tetrahydrocyclopenta[b]pyrrole-2-carboxylic acid] | ≤ 0.1 |  |  | (+) (2.5-4.9 = (+)) | (+) (2.5-4.9 = (+)) |  | 
23 | O=C(O)c1cc2c([nH]1)CCC2Cc1cccc(Br)c1 (single isomer, unassigned) [Compound 64, 4-(3-bromobenzyl)-1,4,5,6-tetrahydrocyclopenta[b]pyrrole-2-carboxylic acid] | ≤ 0.1 | (−) (<2.5 = (−)) |  |  |  |  | 
24 | O=C(O)c1cc2c([nH]1)CCC2Cc1ccc(F)cc1F (single isomer, unassigned) [Compound 47, 4-(2,4-difluorobenzyl)-1,4,5,6-tetrahydrocyclopenta[b]pyrrole-2-carboxylic acid] | ≤ 0.1 |  |  | (++) (>5 = (++)) | (+) (2.5-4.9 = (+)) |  | 
25 | O=C(O)c1cc2c([nH]1)CCC2Cc1cccc(Br)c1 (single isomer, unassigned) [Compound 65, 4-(3-bromobenzyl)-1,4,5,6-tetrahydrocyclopenta[b]pyrrole-2-carboxylic acid] | ≤ 100 |  |  | (++) (>5 = (++)) | (+) (2.5-4.9 = (+)) |  | 
26 | Cc1cc(F)ccc1CC1CCc2[nH]c(C(=O)O)cc21 (single isomer, unassigned) [Compound 53, 4-(4-fluoro-2-methylbenzyl)-1,4,5,6-tetrahydrocyclopenta[b]pyrrole-2-carboxylic acid] | ≤ 0.1 |  |  |  |  | (+) (2.5-4.9 = (+)) | (−) (<2.5 = (−))
27 | O=C(O)c1cc2c([nH]1)CCC2Cc1ccc2ccccc2c1 (racemic) [Compound 78, 4-(naphthalen-2-ylmethyl)-1,4,5,6-tetrahydrocyclopenta[b]pyrrole-2-carboxylic acid] | ≤ 0.1 |  |  | (+) (2.5-4.9 = (+)) | (+) (2.5-4.9 = (+)) |  | 
28 | O=C(O)c1cc2c([nH]1)CCC2Cc1cccc(Br)c1 (racemic) [Compound 63, 4-(3-bromobenzyl)-1,4,5,6-tetrahydrocyclopenta[b]pyrrole-2-carboxylic acid] | ≤ 0.1 |  |  |  |  |  | 
29 | O=C(O)c1cc2c([nH]1)CCCC2 [Compound 30, 4,5,6,7-tetrahydro-1H-indole-2-carboxylic acid] | ≤ 1 |  |  |  |  |  | 
